Molecular target: EZH2 (Homo sapiens (Human), UniProt Q15910)
Test: PRC2 enzyme assay on peptide substrates
Assay type: biochemical
Details: PRC2 enzyme assays on peptide substrates; 4 nM enzyme, 30 min preincubation at 25° C.; read-out: EZH2 IC50

Sequence of EZH2 (Q15910 other isoform, or with tags, fused parts or gaps): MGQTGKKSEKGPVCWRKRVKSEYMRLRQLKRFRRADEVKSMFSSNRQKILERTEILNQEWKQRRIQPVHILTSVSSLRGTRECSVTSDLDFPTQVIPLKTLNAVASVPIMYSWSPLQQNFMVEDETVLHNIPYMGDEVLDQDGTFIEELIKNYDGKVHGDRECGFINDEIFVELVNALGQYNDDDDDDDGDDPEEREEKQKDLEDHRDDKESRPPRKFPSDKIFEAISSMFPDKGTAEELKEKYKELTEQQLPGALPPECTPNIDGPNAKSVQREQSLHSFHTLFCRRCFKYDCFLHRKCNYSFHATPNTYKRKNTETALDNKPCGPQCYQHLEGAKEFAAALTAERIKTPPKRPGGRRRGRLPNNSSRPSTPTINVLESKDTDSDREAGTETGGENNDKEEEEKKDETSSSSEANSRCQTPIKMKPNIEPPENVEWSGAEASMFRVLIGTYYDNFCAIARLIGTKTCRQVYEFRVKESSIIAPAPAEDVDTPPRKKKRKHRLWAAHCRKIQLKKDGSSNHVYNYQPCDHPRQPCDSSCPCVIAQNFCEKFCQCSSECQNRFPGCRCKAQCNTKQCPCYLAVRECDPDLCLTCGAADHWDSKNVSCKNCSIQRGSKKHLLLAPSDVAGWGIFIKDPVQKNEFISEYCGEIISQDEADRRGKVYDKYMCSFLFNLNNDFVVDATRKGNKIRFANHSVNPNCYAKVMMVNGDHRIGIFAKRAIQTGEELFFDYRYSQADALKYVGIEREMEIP
Sequence of EZH2 (O75530 whole entry partner): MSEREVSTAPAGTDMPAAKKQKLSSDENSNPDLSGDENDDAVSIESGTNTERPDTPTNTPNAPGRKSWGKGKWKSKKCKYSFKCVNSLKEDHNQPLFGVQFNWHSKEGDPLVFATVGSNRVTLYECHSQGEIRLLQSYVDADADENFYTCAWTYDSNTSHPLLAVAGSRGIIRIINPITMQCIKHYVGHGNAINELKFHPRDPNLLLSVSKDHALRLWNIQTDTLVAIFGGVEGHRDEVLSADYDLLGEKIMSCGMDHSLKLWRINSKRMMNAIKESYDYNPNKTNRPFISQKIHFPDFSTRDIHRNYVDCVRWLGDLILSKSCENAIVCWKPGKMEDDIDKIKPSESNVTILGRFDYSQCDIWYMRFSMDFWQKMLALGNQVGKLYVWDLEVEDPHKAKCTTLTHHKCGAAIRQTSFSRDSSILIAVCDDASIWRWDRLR
Sequence of EZH2 (Q15022 whole entry partner): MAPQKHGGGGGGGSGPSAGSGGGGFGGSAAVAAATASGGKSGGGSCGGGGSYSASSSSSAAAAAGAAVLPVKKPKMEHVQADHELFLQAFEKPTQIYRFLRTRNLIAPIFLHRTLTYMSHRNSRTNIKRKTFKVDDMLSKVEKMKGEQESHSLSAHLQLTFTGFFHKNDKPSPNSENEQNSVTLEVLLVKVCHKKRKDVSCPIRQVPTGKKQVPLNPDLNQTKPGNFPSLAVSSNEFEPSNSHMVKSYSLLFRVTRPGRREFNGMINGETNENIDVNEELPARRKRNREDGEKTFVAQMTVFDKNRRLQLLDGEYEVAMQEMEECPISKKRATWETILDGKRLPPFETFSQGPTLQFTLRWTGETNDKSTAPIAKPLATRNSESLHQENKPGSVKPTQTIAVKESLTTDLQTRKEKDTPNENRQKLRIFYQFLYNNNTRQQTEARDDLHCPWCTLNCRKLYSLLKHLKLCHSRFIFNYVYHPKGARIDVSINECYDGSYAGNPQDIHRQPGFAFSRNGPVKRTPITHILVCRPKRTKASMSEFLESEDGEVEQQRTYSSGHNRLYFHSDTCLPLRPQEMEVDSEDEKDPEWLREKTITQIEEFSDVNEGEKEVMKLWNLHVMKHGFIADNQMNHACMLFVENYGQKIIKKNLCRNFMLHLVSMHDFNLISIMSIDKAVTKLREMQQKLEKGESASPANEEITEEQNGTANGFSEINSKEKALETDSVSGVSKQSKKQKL
Sequence of EZH2 (Q09028 whole entry partner): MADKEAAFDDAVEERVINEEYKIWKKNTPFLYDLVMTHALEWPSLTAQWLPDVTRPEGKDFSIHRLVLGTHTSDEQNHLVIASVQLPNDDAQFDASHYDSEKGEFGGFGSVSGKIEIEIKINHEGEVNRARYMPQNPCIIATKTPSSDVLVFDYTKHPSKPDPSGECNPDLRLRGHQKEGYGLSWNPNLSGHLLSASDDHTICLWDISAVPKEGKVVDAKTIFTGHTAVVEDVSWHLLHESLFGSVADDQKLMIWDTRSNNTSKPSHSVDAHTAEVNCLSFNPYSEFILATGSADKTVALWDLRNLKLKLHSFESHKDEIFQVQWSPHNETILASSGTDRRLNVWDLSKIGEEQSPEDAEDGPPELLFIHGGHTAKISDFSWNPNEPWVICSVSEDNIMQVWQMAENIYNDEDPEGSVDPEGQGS

| Compound | IC50 |
| --- | --- |
| Cc1cc(C)c(CNC(=O)c2cc(C3CCCCC3)nc3c2cnn3C(C)C)c(=O)[nH]1 [Compound B-142] | 3000 to 10000 nM |
| Cc1cc(C)c(CNC(=O)c2cc(-c3ccc(N4CCNCC4)nc3)nc3c2cnn3C(C)C)c(=O)[nH]1 [Compound A-10, N-((4,6-dimethyl-2-oxo-1,2-dihydropyridin-3-yl)methyl)-1-isopropyl-6-(6-(piperazin-1-yl)pyridin-3-yl)-1H-pyrazolo[3,4-b]pyridine-4-carboxamide] | < 300 nM |
| CNCC(=O)N1CC=C(c2cc(C(=O)NCc3c(C)cc(C)[nH]c3=O)c3cnn(C4CCCC4)c3c2)CC1 [Compound D-45] | < 300 nM |
| Cc1[nH]c(=O)c(CNC(=O)c2cc(C3=CC(C)(C)NC(C)(C)C3)nc3c2cnn3C(C)C)c(C)c1C [Compound B-139] | 3000 to 10000 nM |
| Cc1cc(C)c(CNC(=O)c2cc(-c3cccc(C(=O)O)c3)nc3c2cnn3C(C)C)c(=O)[nH]1 [Compound A-67] | 1000 to 3000 nM |
| Cc1cc(CN2CCN(C)CC2)c(CNC(=O)c2cccc3c2cnn3C2CCCC2)c(=O)[nH]1 [Compound D-74] | 1000 to 3000 nM |
| Cc1cc(C)c(CNC(=O)c2cc(N3CCNCC3)nc3c2cnn3C(C)C)c(=O)[nH]1 [Compound B-92] | 1000 to 3000 nM |
| Cc1cc(C)c(CNC(=O)c2cccc3c2cnn3C(C)C)c(=O)[nH]1 [Compound D-71] | 1000 to 3000 nM |
| Cc1cc(C)c(CNC(=O)c2cc(C(O)CO)nc3c2cnn3C(C)C)c(=O)[nH]1 (stereo not shown) [Compound B-126] | 3000 to 10000 nM |
| Cc1cc(C)c(CNC(=O)c2cc(-c3cnn(CCN4CCOCC4)c3)cc3c2cnn3C2CCN(C(=O)C(C)(C)C)CC2)c(=O)[nH]1 [Compound C-34] | < 300 nM |
| Cc1cc(C)c(CNC(=O)c2cccc3c2ccn3C(C)C)c(=O)[nH]1 [Compound E-1] | 1000 to 3000 nM |
| Cc1cc(COCCCN(C)C)c(CNC(=O)c2cccc3c2cnn3C2CCCC2)c(=O)[nH]1 [Compound D-86] | 3000 to 10000 nM |
| Cc1cc(C)c(CNC(=O)c2cc(C3=CC(C)(C)NC(C)(C)C3)nc3c2cnn3CC(F)(F)F)c(=O)[nH]1 [Compound B-164] | 3000 to 10000 nM |
| Cc1cc(C)c(CNC(=O)c2cc(C3CCOCC3)nc3c2cnn3C(C)C)c(=O)[nH]1 [Compound B-129] | 3000 to 10000 nM |
| Cc1cc(C)c(CNC(=O)c2cc(-c3cccc(CN(C)C)c3)nc3c2cnn3C(C)C)c(=O)[nH]1 [Compound A-3, N-((4,6-dimethyl-2-oxo-1,2-dihydropyridin-3-yl)methyl)-6-(3-((dimethylamino)methyl)phenyl)-1-isopropyl-1H-pyrazolo[3,4-b]pyridine-4-carboxamide] | 300 to 1000 nM |
| Cc1cc(C)c(CNC(=O)c2cc(-c3cccnc3N3CCNCC3)nc3c2cnn3C(C)C)c(=O)[nH]1 [Compound A-66] | 1000 to 3000 nM |
| Cc1cc(COCCN(C)C)c(CNC(=O)c2cc(Br)cc3c2cnn3C2CCCC2)c(=O)[nH]1 [Compound D-85] | 3000 to 10000 nM |
| Cc1cc(C)c(CNC(=O)c2cc(N3CCC(N4CCN(C(=O)OC(C)(C)C)CC4)CC3)nc3c2cnn3C(C)C)c(=O)[nH]1 [Compound B-108] | 1000 to 3000 nM |
| CC(=O)N1CC=C(c2cc(C(=O)NCc3c(C)cc(C)[nH]c3=O)c3cnn(C(C)C)c3n2)CC1 [Compound B-64] | 300 to 1000 nM |
| Cc1cc(C)c(CNC(=O)c2cc(C3CCNCC3)nc3c2cnn3C(C)C)c(=O)[nH]1 [Compound B-24, N-((4,6-dimethyl-2-oxo-1,2-dihydropyridin-3-yl)methyl)-1-isopropyl-6-(piperidin-4-yl)-1H-pyrazolo[3,4-b]pyridine-4-carboxamide] | 300 to 1000 nM |
| CCc1ccc(CNC(=O)c2cc(-c3ccc4c(c3)OCCO4)nc3c2cnn3C(C)C)c(=O)[nH]1 [Compound A-110] | 10000 to 50000 nM |
| Cc1cc(C)c(CNC(=O)c2cc(N3CCC(=O)CC3)nc3c2cnn3C(C)C)c(=O)[nH]1 [Compound B-95] | 1000 to 3000 nM |
| Cc1cc(CN(C)CCCN(C)C)c(CNC(=O)c2cccc3c2cnn3C2CCCC2)c(=O)[nH]1 [Compound D-80] | 1000 to 3000 nM |
| Cc1cc(C)c(CNC(=O)c2cc(C(F)(F)F)cc3c2cnn3C2CCCC2)c(=O)[nH]1 [Compound D-11, 1-cyclopentyl-N-((4,6-dimethyl-2-oxo-1,2-dihydropyridin-3-yl)methyl)-6-(trifluoromethyl)-1H-indazole-4-carboxamide] | 300 to 1000 nM |
| Cc1cc(C)c(CNC(=O)c2cc(-c3ccc(OCCCN(C)C)cc3)cc3c2cnn3C2CCCC2)c(=O)[nH]1 [Compound C-35] | < 300 nM |
| Cc1cc(C)c(CNC(=O)c2cc(C3CCN(CCN)CC3)cc3c2cnn3C2CCCC2)c(=O)[nH]1 [Compound D-96] | < 300 nM |
| Cc1cc(C)c(CNC(=O)c2cc(N3CCN(C)CC3)nc3c2cnn3C(C)C)c(=O)[nH]1 [Compound B-9, N-((4,6-dimethyl-2-oxo-1,2-dihydropyridin-3-yl)methyl)-1-isopropyl-6-(4-methylpiperazin-1-yl)-1H-pyrazolo[3,4-b]pyridine-4-carboxamide] | 1000 to 3000 nM |
| Cc1cc(C)c(CNC(=O)c2cc(C3CCN(C(=O)C4CNC4)CC3)nc3c2cnn3C(C)C)c(=O)[nH]1 [Compound B-77] | 300 to 1000 nM |

| Compound | IC50 |
| --- | --- |
| C=C(C)c1cc(C(=O)NCc2c(C)cc(C)[nH]c2=O)c2cnn(C(C)C)c2n1 [Compound B-93] | 1000 to 3000 nM |
| Cc1cc(C)c(CNC(=O)c2cc(C3=CCNCC3)nc3c2cnn3C(C)C)c(=O)[nH]1 [Compound B-60] | 300 to 1000 nM |
| Cc1cc[nH]c(=O)c1CNC(=O)c1cc(-c2cccc(CN3CCN(C)CC3)c2)nc2c1cnn2C(C)C [Compound A-72] | 10000 to 50000 nM |
| CCc1cc(C)[nH]c(=O)c1CNC(=O)c1cc(C2=CC(C)(C)NC(C)(C)C2)nc2c1cnn2C(C)C [Compound B-25, N-((4-ethyl-6-methyl-2-oxo-1,2-dihydropyridin-3-yl)methyl)-1-isopropyl-6-(2,2,6,6-tetramethyl-1,2,3,6-tetrahydropyridin-4-yl)-1H-pyrazolo[3,4-b]pyridine-4-carboxamide] | < 300 nM |
| Cc1cc(C)c(CNC(=O)c2cc(C3=CCN(C(=O)[C@@H](N)CO)CC3)nc3c2cnn3C(C)C)c(=O)[nH]1 [Compound B-66] | 300 to 1000 nM |
| Cc1cc(C)c(CNC(=O)c2cc(-c3cccc(CNC(=O)OC(C)(C)C)c3)nc3c2cnn3C(C)C)c(=O)[nH]1 [Compound A-92] | 1000 to 3000 nM |
| Cc1cc(C)c(CNC(=O)c2cc(C3=CCN(C(=O)C4CCNCC4)CC3)cc3c2cnn3C2CCCC2)c(=O)[nH]1 [Compound D-39] | < 300 nM |
| Cc1cc(C)c(CNC(=O)c2cc(-c3ccc(CN(C)C)cc3)nc3c2cnn3C(C)C)c(=O)[nH]1 [Compound A-22] | 300 to 1000 nM |
| Cc1cc(C)c(CNC(=O)c2cc(C3=CCN(C(=O)C4CNC4)CC3)nc3c2cnn3C(C)C)c(=O)[nH]1 [Compound B-30, 6-(1-(azetidine-3-carbonyl)-1,2,3,6-tetrahydropyridin-4-yl)-N-((4,6-dimethyl-2-oxo-1,2-dihydropyridin-3-yl)methyl)-1-isopropyl-1H-pyrazolo[3,4-b]pyridine-4-carboxamide] | < 300 nM |
| Cc1cc(C)c(CNC(=O)c2cc(Br)cc3c2cnn3C2CCN(C(=O)C3CNC3)CC2)c(=O)[nH]1 [Compound D-14, 1-(1-(azetidine-3-carbonyl)piperidin-4-yl)-6-bromo-N-((4,6-dimethyl-2-oxo-1,2-dihydropyridin-3-yl)methyl)-1H-indazole-4-carboxamide] | < 300 nM |
| Cc1cc(C)c(CNC(=O)c2cc(C(=O)NCCN(C)C)nc3c2cnn3C(C)C)c(=O)[nH]1 [Compound B-140] | 3000 to 10000 nM |
| Cc1cc(C)c(CNC(=O)c2cc(CN3CCOCC3)cc3c2cnn3C2CCCC2)c(=O)[nH]1 [Compound D-64] | 300 to 1000 nM |
| Cc1ccc(CNC(=O)c2cc(-c3ccc(N4CCN(C)CC4)nc3)nc3c2cnn3C(C)C)c(=O)[nH]1 [Compound A-60] | 1000 to 3000 nM |
| Cc1cc(C)c(CNC(=O)c2cc(C3=CCN(C(=O)C4CCN(C)CC4)CC3)cc3c2cnn3C2CCCC2)c(=O)[nH]1 [Compound D-5, 1-cyclopentyl-N-((4,6-dimethyl-2-oxo-1,2-dihydropyridin-3-yl)methyl)-6-(1-(1-methylpiperidine-4-carbonyl)-1,2,3,6-tetrahydropyridin-4-yl)-1H-indazole-4-carboxamide] | < 300 nM |
| CCc1c(C)[nH]c(=O)c(CNC(=O)c2cc(C3CC(C)(C)NC(C)(C)C3)nc3c2cnn3C(C)C)c1C [Compound B-137] | 3000 to 10000 nM |
| CC(=O)c1cc(C(=O)NCc2c(C)cc(C)[nH]c2=O)c2cnn(C(C)C)c2n1 [Compound B-17, 6-acetyl-N-((4,6-dimethyl-2-oxo-1,2-dihydropyridin-3-yl)methyl)-1-isopropyl-1H-pyrazolo[3,4-b]pyridine-4-carboxamide] | 1000 to 3000 nM |
| Cc1cc(C)c(CNC(=O)c2cc(-c3ccc(CN4CCOCC4)cc3)cc3c2ccn3C2CCCC2)c(=O)[nH]1 [Compound E-2] | < 300 nM |
| Cc1cc(C)c(CNC(=O)c2cc(C3=CCN(CCO)CC3)cc3c2cnn3C2CCCC2)c(=O)[nH]1 [Compound D-95] | < 300 nM |
| Cc1cc(C)c(CNC(=O)c2cc(-c3ccc(N4CCN(C)CC4)nc3)nc3c2cnn3-c2ccccc2)c(=O)[nH]1 [Compound A-109] | 10000 to 50000 nM |
| Cc1cc(C)c(CNC(=O)c2cc(C3=CCN(C(=O)C4CNC4)CC3)cc3c2cnn3C2CCCC2)c(=O)[nH]1 [Compound D-37] | < 300 nM |
| Cc1cc(C)c(CNC(=O)c2cc(Br)cc3c2cnn3C2CCN(C(C)C)CC2)c(=O)[nH]1 [Compound D-70] | 1000 to 3000 nM |
| Cc1cc(CN(C)CCCN(C)C)c(CNC(=O)c2cc(Br)cc3c2cnn3C2CCCC2)c(=O)[nH]1 [Compound D-62] | 300 to 1000 nM |
| CCn1ncc2c(C(=O)NCc3c(C)cc(C)[nH]c3=O)cc(C3=CC(C)(C)NC(C)(C)C3)nc21 [Compound B-131] | 3000 to 10000 nM |
| C=C(Cn1ncc2c(C(=O)NCc3c(C)cc(C)[nH]c3=O)cc(C3=CC(C)(C)NC(C)(C)C3)nc21)C(=O)OC [Compound B-120] | 1000 to 3000 nM |
| Cc1cc(C)c(CNC(=O)c2cc(-c3ccc(CN(C)CCN4CCCC4)cc3)nc3c2cnn3C(C)C)c(=O)[nH]1 [Compound A-21] | 300 to 1000 nM |
| COc1cc(C(=O)NCc2c(C)cc(C)[nH]c2=O)c2cnn(C(C)C)c2n1 [Compound B-118] | 1000 to 3000 nM |
| Cc1cc(C)c(CNC(=O)c2cc(C3CCN(C(=O)[C@@H](N)CO)CC3)nc3c2cnn3C(C)C)c(=O)[nH]1 [Compound B-100] | 1000 to 3000 nM |

— patent publication US9637472B2, “Substituted 6,5-fused bicyclic heteroaryl compounds” (Epizyme, Inc., priority 2011, dated 2017)
